Results taken from patent US20240132431A1, “METHOD FOR ALKYLATING ACIDIC FUNCTIONAL GROUP” (Chugai Seiyaku Kabushiki Kaisha, priority 2021, published 2024).

Target: T1, Bcl-2 protein (Recombinant Human Bcl-2 Protein) (Homo sapiens, UniProt P10415)
T1 construct: purchased Novus NBP2-34889
Test: Binding evaluation of mixture library compounds to Bcl-2 using AS-MS (affinity selection mass spectrometry)
Details: for ASMS ratio (%) n = 1: replicate n = 1; for ASMS ratio (%) n = 1 / ASMS ratio (%) n = 2: ASMS Ratio(%)=(A−C)/B×100; for ASMS ratio (%) n = 2: replicate n = 2
Procedure, shortened: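 Bcl-2 binding is scored from LC/MS signal retained with protein through gel-filtration spin columns, normalised to unfiltered and protein-free controls. Incubation: 20 μM protein, […] per compound, 1 h, 23° C.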

[1] = AS-MS on the mixture of 1200 library compounds
[2] = AS-MS, mixture of 1200 compounds, Bcl-2

T1 sequence (P10415 whole entry): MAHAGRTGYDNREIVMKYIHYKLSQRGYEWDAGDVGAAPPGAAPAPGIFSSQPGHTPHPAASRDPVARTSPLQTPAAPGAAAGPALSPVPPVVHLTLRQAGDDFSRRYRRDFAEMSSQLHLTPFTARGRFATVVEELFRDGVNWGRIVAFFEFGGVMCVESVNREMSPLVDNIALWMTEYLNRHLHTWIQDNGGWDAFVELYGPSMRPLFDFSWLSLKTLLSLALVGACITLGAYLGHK

CCOc1cccc(-c2cc(CN3CCN(c4ccc(C(=O)N(CC)CC)nn4)CC3)cc(OC(F)(F)F)c2)c1 [B4J089-01, 6-[4-[[3-(3-Ethoxyphenyl)-5-(trifluoromethoxy)phenyl]methyl]piperazin-1-yl]-N,N-diethylpyridazine-3-carboxamide]
ASMS ratio (%) n = 1 (AS-MS, mixture library, Bcl-2): 3.9% | ASMS ratio (%) n = 2 (AS-MS, mixture library, Bcl-2): 0.4%

CCOc1cccc(-c2ccc(CN3CCN(c4ccc(C(=O)NS(=O)(=O)CCC(F)(F)F)cc4)CC3)c3ccccc23)c1 [B2N065-01]
ASMS ratio (%) (n = 1): 0.0% | ASMS ratio (%) (n = 2): 0.0%

CCOc1cncc(-c2cc(CN3CCN(c4ccc(C(=O)Nc5ccc(OC)cc5)nn4)CC3)cc(OC(F)(F)F)c2)c1 [B1O090-01, 6-[4-[[3-(5-Ethoxypyridin-3-yl)-5-(trifluoromethoxy)phenyl]methyl]piperazin-1-yl]-N-(4-methoxyphenyl)pyridazine-3-carboxamide]
ASMS ratio (%) n = 1 [1]: 3.3% | ASMS ratio (%) n = 2 [1]: −2.0%

CCOc1cccc(-c2ccc(C(=O)N3CCN(c4ccc(C(=O)NS(=O)(=O)c5ccc(NCCSc6ccccc6)c([N+](=O)[O-])c5)nn4)CC3)cc2C)c1 [B2Q003-01, 6-[4-[4-(3-Ethoxyphenyl)-3-methylbenzoyl]piperazin-1-yl]-N-[3-nitro-4-(2-phenylsulfanylethylamino)phenyl]sulfonylpyridazine-3-carboxamide]
ASMS ratio (%) n = 1 (AS-MS, mixture library, Bcl-2): 8.2% | ASMS ratio (%) n = 2 (AS-MS, mixture library, Bcl-2): 6.9%

CCOc1cncc(-c2ccc(CN3CCN(c4ccc(C(=O)NS(=O)(=O)CCC(F)(F)F)nn4)CC3)cc2F)c1 [B2N078-01, 6-[4-[[4-(5-Ethoxypyridin-3-yl)-3-fluorophenyl]methyl]piperazin-1-yl]-N-(3,3,3-trifluoropropylsulfonyl)pyridazine-3-carboxamide]
ASMS ratio (%) (n = 1): 0.0% | ASMS ratio (%) (n = 2): 0.0%

CCOc1cccc(-c2ccccc2CN2CCN(c3ccc(C(=O)N(CC)CC)cc3)CC2)c1 [B4J045-01, 4-[4-[[2-(3-Ethoxyphenyl)phenyl]methyl]piperazin-1-yl]-N,N-diethylbenzamide]
ASMS ratio (%) n = 1 [1]: 1.1% | ASMS ratio (%) n = 2 [1]: 0.3%

CCOc1cccc(-c2cc(CN3CCN(c4ccc(C(=O)N(C)CC56CC7CC(CC(C7)C5)C6)nn4)CC3)cc(C(F)(F)F)c2)c1 [B3A087-01, N-(1-Adamantylmethyl)-6-[4-[[3-(3-ethoxyphenyl)-5-(trifluoromethyl)phenyl]methyl]piperazin-1-yl]-N-methylpyridazine-3-carboxamide]
ASMS ratio (%) n = 1 [1]: 0.4% | ASMS ratio (%) n = 2 [1]: 1.4%

CCOc1cccc(C#Cc2cc(C(=O)N3CCN(c4ccc(C(=O)N(CC)CC)cc4)CC3)cc(C(F)(F)F)c2)c1 [B4J041-01, 4-[4-[3-[2-(3-Ethoxyphenyl)ethynyl]-5-(trifluoromethyl)benzoyl]piperazin-1-yl]-N,N-diethylbenzamide]
ASMS ratio (%) n = 1 [1]: 2.8% | ASMS ratio (%) n = 2 [1]: 1.7%

CCOc1cccc(-c2cnn(-c3cc(C(=O)N4CCN(c5ccc(C(=O)NS(=O)(=O)CC67CC8CC(CC(C8)C6)C7)nn5)CC4)cc(C(F)(F)F)c3)c2)c1 [B2A021-01, N-(1-Adamantylmethylsulfonyl)-6-[4-[3-[4-(3-ethoxyphenyl)pyrazol-1-yl]-5-(trifluoromethyl)benzoyl]piperazin-1-yl]pyridazine-3-carboxamide]
ASMS ratio (%) n = 1 (AS-MS, mixture library, Bcl-2): 14.4% | ASMS ratio (%) n = 2 (AS-MS, mixture library, Bcl-2): 9.4%

4-[4-[3-tert-Butyl-5-(5-ethoxypyridin-3-yl)benzoyl]piperazin-1-yl]-N-propylbenzamide [B1M063-01]
ASMS ratio (%) n = 1 [2]: 0.4% | ASMS ratio (%) n = 2 [2]: −1.1%

CCOc1cncc(-c2ccc(C(=O)N3CCN(c4ccc(C(=O)Nc5ccc(OC)cc5)cc4)CC3)c3ccccc23)c1 [B1O036-01, 4-[4-[4-(5-Ethoxypyridin-3-yl)naphthalene-1-carbonyl]piperazin-1-yl]-N-(4-methoxyphenyl)benzamide]
ASMS ratio (%) n = 1 [1]: 4.8% | ASMS ratio (%) n = 2 [1]: 0.9%

CCOc1cncc(-c2ccc(CN3CCN(c4ccc(C(=O)NS(=O)(=O)C(C)(C)C)cc4)CC3)cc2C)c1 [B2L048-01]
ASMS ratio (%) (n = 1): 3.9% | ASMS ratio (%) (n = 2): −5.0%

CCOc1cccc(-c2ccccc2CN2CCN(c3ccc(C(=O)NS(=O)(=O)C(C)(C)C)nn3)CC2)c1 [B2L071-01, N-tert-Butylsulfonyl-6-[4-[[2-(3-ethoxyphenyl)phenyl]methyl]piperazin-1-yl]pyridazine-3-carboxamide]
ASMS ratio (%) (n = 1): 1.2% | ASMS ratio (%) (n = 2): 0.0%

CCOc1cncc(-c2csc(CN3CCN(c4ccc(C(=O)NS(=O)(=O)CC56CC7CC(CC(C7)C5)C6)nn4)CC3)c2)c1 [B2A094-01, N-(1-Adamantylmethylsulfonyl)-6-[4-[[4-(5-ethoxypyridin-3-yl)thiophen-2-yl]methyl]piperazin-1-yl]pyridazine-3-carboxamide]
ASMS ratio (%) n = 1 (AS-MS, mixture library, Bcl-2): 0.0% | ASMS ratio (%) n = 2 (AS-MS, mixture library, Bcl-2): 0.0%

CCOc1cccc(-c2ccc(C(=O)N3CCN(c4ccc(C(=O)N(C)CC56CC7CC(CC(C7)C5)C6)nn4)CC3)c3ccccc23)c1 [B3A013-01, N-(1-Adamantylmethyl)-6-[4-[4-(3-ethoxyphenyl)naphthalene-1-carbonyl]piperazin-1-yl]-N-methylpyridazine-3-carboxamide]
ASMS ratio (%) n = 1 [1]: 10.2% | ASMS ratio (%) n = 2 [1]: −20.0%

CCOc1cccc(-c2cc(C(=O)N3CCN(c4ccc(C(=O)NS(=O)(=O)c5ccc(NCCSc6ccccc6)c(C(F)(F)F)c5)cc4)CC3)cc(C(F)(F)F)c2)c1 [B2R039-01, 4-[4-[3-(3-Ethoxyphenyl)-5-(trifluoromethyl)benzoyl]piperazin-1-yl]-N-[4-(2-phenylsulfanylethylamino)-3-(trifluoromethyl)phenyl]sulfonylbenzamide]
ASMS ratio (%) (n = 1): 9.7% | ASMS ratio (%) (n = 2): −4.8%

CCOc1cccc(-c2ccc(C(=O)N3CCN(c4ccc(C(=O)NCC(F)(F)F)cc4)CC3)cc2C)c1 [B1K025-01, 4-[4-[4-(3-Ethoxyphenyl)-3-methylbenzoyl]piperazin-1-yl]-N-(2,2,2-trifluoroethyl)benzamide]
ASMS ratio (%) n = 1 [2]: 0.3% | ASMS ratio (%) n = 2 [2]: −0.8%

CCOc1cccc(-c2ccccc2CCC(=O)N2CCN(c3ccc(C(=O)NS(C)(=O)=O)cc3)CC2)c1 [B2I033-01, 4-[4-[3-[2-(3-Ethoxyphenyl)phenyl]propanoyl]piperazin-1-yl]-N-methylsulfonylbenzamide]
ASMS ratio (%) n = 1 (AS-MS, mixture library, Bcl-2): 0.0% | ASMS ratio (%) n = 2 (AS-MS, mixture library, Bcl-2): 0.0%

CCOc1cncc(C#Cc2ccccc2CN2CCN(c3ccc(C(=O)NS(=O)(=O)CCC(F)(F)F)cc3)CC2)c1 [B2N070-01, 4-[4-[[2-[2-(5-Ethoxypyridin-3-yl)ethynyl]phenyl]methyl]piperazin-1-yl]-N-(3,3,3-trifluoropropylsulfonyl)benzamide]
ASMS ratio (%) (n = 1): 0.0% | ASMS ratio (%) (n = 2): 0.0%

CCOc1cncc(-c2ccccc2CCC(=O)N2CCN(c3ccc(C(=O)NCC(F)(F)F)cc3)CC2)c1 [B1K034-01, 4-[4-[3-[2-(5-Ethoxypyridin-3-yl)phenyl]propanoyl]piperazin-1-yl]-N-(2,2,2-trifluoroethyl)benzamide]
ASMS ratio (%) n = 1 [2]: −0.3% | ASMS ratio (%) n = 2 [2]: 0.0%

CCOc1cccc(-c2ccc(CN3CCN(c4ccc(C(=O)NS(=O)(=O)CCC(F)(F)F)cc4)CC3)cc2C)c1 [B2N047-01, 4-[4-[[4-(3-Ethoxyphenyl)-3-methylphenyl]methyl]piperazin-1-yl]-N-(3,3,3-trifluoropropylsulfonyl)benzamide]
ASMS ratio (%) (n = 1): 0.0% | ASMS ratio (%) (n = 2): 0.0%

CCOc1cccc(-c2ccc(CN3CCN(c4ccc(C(=O)NCC(F)(F)F)cc4)CC3)c(CC)c2)c1 [B1K049-01, 4-[4-[[4-(3-Ethoxyphenyl)-2-ethylphenyl]methyl]piperazin-1-yl]-N-(2,2,2-trifluoroethyl)benzamide]
ASMS ratio (%) n = 1 [2]: −3.3% | ASMS ratio (%) n = 2 [2]: 1.5%

CCOc1cncc(C#Cc2ccccc2C(=O)N2CCN(c3ccc(C(=O)NS(C)(=O)=O)nn3)CC2)c1 [B2I008-01, 6-[4-[2-[2-(5-Ethoxypyridin-3-yl)ethynyl]benzoyl]piperazin-1-yl]-N-methylsulfonylpyridazine-3-carboxamide]
ASMS ratio (%) n = 1 (AS-MS, mixture library, Bcl-2): 0.0% | ASMS ratio (%) n = 2 (AS-MS, mixture library, Bcl-2): 0.0%

CCOc1cccc(-c2cc(CN3CCN(c4ccc(C(=O)N(CC)CC)nn4)CC3)cc(C(F)(F)F)c2)c1 [B4J087-01, 6-[4-[[3-(3-Ethoxyphenyl)-5-(trifluoromethyl)phenyl]methyl]piperazin-1-yl]-N,N-diethylpyridazine-3-carboxamide]
ASMS ratio (%) n = 1 (AS-MS, mixture library, Bcl-2): 0.9% | ASMS ratio (%) n = 2 (AS-MS, mixture library, Bcl-2): 0.3%

4-[4-[[3-Ethoxy-5-(5-ethoxypyridin-3-yl)phenyl]methyl]piperazin-1-yl]-N-propylbenzamide [B1M011-01]
ASMS ratio (%) n = 1 [2]: 18.6% | ASMS ratio (%) n = 2 [2]: 7.5%

4-[4-[4-(5-Ethoxypyridin-3-yl)naphthalene-1-carbonyl]piperazin-1-yl]-N-propylbenzamide [B1M074-01]
ASMS ratio (%) n = 1 [2]: −1.6% | ASMS ratio (%) n = 2 [2]: 0.9%
